Entries after “also recorded” stand apart in the source; their conditions may differ.
Assays:
[1] = system: cardiac sympathetic nerve endings; assay: angiotensin II-evoked norepinephrine release from cardiac sympathetic nerve endings; settings: for decrease of angiotensin II-induced norepinephrine release / effect on norepinephrine release induced by angiotensin II (FIG. 20): EIPA 30 μM, U-73122 1 μM; for decrease of angiotensin II-induced norepinephrine release: DMI 300 nM; for effect on norepinephrine release induced by angiotensin II (FIG. 20): DMI 300 μM
Description: Briefly, male Hartley guinea pigs were anesthetized with CO2 vapor and then exsanguinated. Hearts were perfused through the aorta for 15 min at constant pressure with Ringer's solution at 37° C. […] Hearts were minced in 0.32 M sucrose containing 1 mM EGTA. The minced tissue was then digested with 75 mg collagenase per 10 ml HBS per gm for 1 hr at 37° C. After low speed centrifugation the resulting pellet were suspended in 10 volumes of 0.32 M sucrose and homogenized with a Teflon/glass homogenizer. The homogenate was centrifuged at 650g for 10 min, the pellet was re-homogenized and the homogenate was centrifuged again. The pellet containing cellular debris was discarded, the supernatants from the last two spins were combined, the pooled supernatant was equally subdivided into 4 to 8 tubes and re-centrifuged for 20 min at 20,000g at 4° C. This pellet contains cardiac sympathetic nerve endings. The pellet was resuspended either in HEPES-buffered saline (HBS; 500 μl, normoxic conditions) or in glucose-free HBS, which contained the reducing agent sodium dithionite (500 μl, ischemic conditions), and incubated in the absence or presence of angiotensinogen (1 hr) or other agents for 20 min at 37° C. prior to ischemia (see below). Each suspension was used only once as an independent sample.
Norepinephrine assay: Coronary effluent and synaptosome supernatant will be assayed for NE by HPLC with electrochemical detection (ESA). […] The detection limit is about 0.2 pmol.

SH-SY5Y-AT1A cells [2] = assay: intracellular calcium in Fura-2 loaded SH-SY5Y-AT1A cells; format: cell-based, human
Description: The next series of experiments were used to outline the major signaling steps in angiotensin II-evoked release of norepinephrine from sympathetic nerve endings. In particular, experiments were designed to ascertain whether stimulation of PLC might result in an increase in intracellular calcium via IP3 generation. Intracellular calcium (Cai) was measured at the individual cell level using Fura-2 loaded SH-SY5Y-AT1A cells (McDonald et al., Neurosci. Lett. 199: 115-118, 1995; Silver et al., Proc. Natl. Acad. Sci. USA 99: 501-506, 2002).
As discussed above, PLC activation may be an early signaling step in mediating this angiotensin II-induced Ca^2+ transient. The PLC inhibitor U-73122 (1 μM) was used to verify this hypothesis. FIG. 21B is a representative trace from one Fura-2 loaded SH-SY5Y-ATIA cell pre-exposed to U-73122.

[3] = system: isolated normoxic guinea pig hearts; assay: chronotropic response and norepinephrine overflow in normoxic isolated hearts challenged with 48/80; settings: BILA 2157 100 nM, lodoxamide 30 μM
Excerpt: These findings indicate that cardiac mast cells are capable of releasing active renin, which then leads to local formation of ANG II causing norepinephrine exocytosis.

guinea-pig hearts = assay: ischemia-reperfusion in guinea pig hearts ex vivo (Langendorff); settings: 20-min global ischemia, 45-min reperfusion, lodoxamide 10 μM; for ventricular fibrillation during reperfusion: BILA2157 100 nM
Description: Ischemia-reperfusion in guinea pig hearts ex vivo: Guinea-pig hearts will be perfused for 30 min prior to ischemia. Inamura et al., Circ. Res. 78: 475-481 (1996). Normothermic 20-min global ischemia will be induced by complete cessation of coronary perfusion, followed by 45-min reperfusion. Coronary effluent will be assayed for renin activity and NE.
Guinea-pig hearts were perfused ex vivo at constant pressure in a Langendorff apparatus and subjected to 20-min. stop-flow global ischemia, followed by 45-min. reperfusion (Hatta, E., R. Maruyama, S. J. Marshall, M. Imamura, and R. Levi. Bradykinin promotes ischemic norepinephrine release in guinea pig and human hearts. J. Pharmacol. Exp. Ther. 288: 919-927 (1999)). Surface ECG and coronary flow were continuously monitored; the coronary effluent was assayed for renin activity (i.e., ANG I generated as described herein). There was no detectable renin in the coronary effluent prior to ischemia. With reperfusion, there was significant renin overflow into the coronary effluent accompanied by ventricular fibrillation (VF) (FIG. 12).
Traces in the left panels were recorded at the end of the equilibration period prior to ischemia, showing normal sinus rhythm.

[4] = system: cardiac sympathetic nerve endings; assay: norepinephrine release from isolated cardiac sympathetic nerve endings incubated with angiotensinogen; format: cell-based, guinea pig
Excerpt: Preparation ofguinea-pig sympathetic nerve endings: Cardiac sympathetic nerve endings were isolated from guinea-pig hearts as previously described (Seyedi et al., J Pharmacol Exp Ther 290: 656-663, 1999; Seyedi et al., Circ. Res. 81: 774-784, 1997). Spontaneously beating hearts were isolated as previously described by the inventors (Hatta et al., J. Pharmacol. Exp. Ther. 288: 919-927, 1999; Park et al., Circ. Res. 71: 992-1001, 1992). Briefly, male Hartley guinea pigs were anesthetized with CO2 vapor and then exsanguinated. Hearts were perfused through the aorta for 15 min at constant pressure with Ringer's solution at 37° C. (Park et al., Circ. Res. 71: 992-1001, 1992) to exclude blood from the coronary circulation. Hearts were minced in 0.32 M sucrose containing 1 mM EGTA. The minced tissue was then digested with 75 mg collagenase per 10 ml HBS per gm for 1 hr at 37° C. After low speed centrifugation the resulting pellet were suspended in 10 volumes of 0.32 M sucrose and homogenized with a Teflon/glass homogenizer. The homogenate was centrifuged at 650g for 10 min, the pellet was re-homogenized and the homogenate was centrifuged again. The pellet containing cellular debris was discarded, the supernatants from the last two spins were combined, the pooled supernatant was equally subdivided into 4 to 8 tubes and re-centrifuged for 20 min at 20,000g at 4° C. This pellet contains cardiac sympathetic nerve endings. The pellet was resuspended either in HEPES-buffered saline (HBS; 500 μl, normoxic conditions) or in glucose-free HBS, which contained the reducing agent sodium dithionite (500 μl, ischemic conditions), and incubated in the absence or presence of angiotensinogen (1 hr) or other agents for 20 min at 37° C. prior to ischemia (see below). Each suspension was used only once as an independent sample.
Norepinephrine assay: Coronary effluent and synaptosome supernatant will be assayed for NE by HPLC with electrochemical detection (ESA). […]

cardiac mast cells = assay: renin in coronary effluent of normoxic Langendorff-perfused hearts challenged with 48/80; parameters: species or system guinea pig; settings: lodoxamide 10 μM or BILA 2157 100 nM prior to 48/80
Description: Renin was measured in the coronary effluent of normoxic Langendorff-perfused guinea-pig hearts, ex vivo. […] When hearts were perfused with the mast-cell stabilizer lodoxamide (FIG. 9B) or the renin inhibitor BILA2157 prior to 48/80 challenge (FIGS. 9A and B), renin overflow was abolished.

Na+/H+ exchanger [5] = assay: Na+/H+ exchanger activity in BCECF-loaded SH-SY5Y-AT1A cells; format: cell-based, human
Description: Similarly, Na^+/H^+ exchanger activity was measured in response to angiotensin II at the individual cell level in BCECF-loaded SH-SY5Y-AT1A cells. […] Exposing the cells to BAPTA-AM (10 μM) prior to angiotensin II, prevented the angiotensin II-induced increase in Na^+/H^+ exchanger activity.

Na+/H+ exchanger [6] = assay: Na+/H+ exchanger activity (acid pulse protocol) in cardiac sympathetic nerve endings; format: cell-based, guinea pig; settings: angiotensin II 10 nM; for increase in Na+/H+ exchanger activity over control: norepinephrine 1 μM
Description: Na^+/H^+ exchanger activity was assayed by measuring the rate of Na^+-dependent intracellular alkalinization in response to an acid load (NH4Cl). An example of the “acid pulse protocol” used to show Na^+/H^+exchanger activity in dye-loaded (BCECF-loaded) sympathetic nerve endings from guinea pig heart is shown in FIG. 18A. This protocol was performed under HEPES-buffered conditions. All of the solutions perfusing the tissue were osmotically balanced using N-methyl-D-glucamine substitution as previously described (Silver et al., Am. J. Physiol. Renal Physiol. 279: F195-F202, 2000; Silver et al., Am. J. Physiol. 275: F94-102, 1998). As shown in the representative tracing in FIG. 18A, guinea-pig heart sympathetic nerve endings, attached to a cover slip and pre-loaded with BCECF to monitor intracellular pH, were initially bathed in a balanced salt solution (Na Ringer's solution).
The slope of this alkalinization of Na^+/H^+ exchanger activity, represented by the dashed line in FIG. 18A, was 0.04 pH units/min. […] Mean Na^+/H^+ exchanger activities measured in cardiac sympathetic nerve endings in this pilot study are compared in FIG. 18C.

human lung mast cells = settings: cited from earlier work
SH-SY5Y-AT1A cells [7] = assay: [3H]MPP+ release from SH-SY5Y-AT1A cells
Description: Efflux was arrested after 10-min exposure to angiotensin II.

With `COc1ccc2c(c1)CC[C@@H]1[C@@H]2CC[C@]2(C)[C@@H](NCCCCCCN3C(=O)C=CC3=O)CC[C@@H]12` [U-73122] the “decrease of angiotensin II-induced norepinephrine release” value (shortened to “decrease”) [1] was “about 60%”, the “effect on norepinephrine release induced by angiotensin II (FIG. 20)” value (“effect on norepinephrine release induced” below) ([1]; angiotensin II 100 nM) was “blocked” and the “effect on angiotensin II-induced intracellular calcium transient” value (SH-SY5Y-AT1A cells [2]; U-73122 1 μM) was “prevented”.
For `N#Cc1cc(NC(=O)C(=O)O)c(Cl)c(NC(=O)C(=O)O)c1` [lodoxamide], the “chronotropic response to 48/80” value [3] was “markedly abbreviated; also recorded: diminishes the chronotropic response”, the “ventricular fibrillation during reperfusion” value (guinea-pig hearts) was “no ventricular fibrillation; also recorded: prevent ventricular fibrillation” and the “ventricular fibrillation during reperfusion” value (guinea-pig hearts; listed as Lodoxamide) was “prevented ventricular fibrillation”. For the same compound, the “renin overflow into coronary effluent on reperfusion” value (guinea-pig hearts; BILA 2157 100 nM) was “no such increase occurs; also recorded: disappeared from the coronary effluent; also recorded: prevented renin release”, the “norepinephrine release when hearts perfused with stabilizer prior to 48/80” value ([4]; lodoxamide 10 μM) was “markedly attenuated” and the “renin overflow into coronary effluent after 48/80 challenge” value (cardiac mast cells) was “abolished; also recorded: markedly diminished”.
In the case of `CCN(c1nc(N)c(C(=O)N=C(N)N)nc1Cl)C(C)C` [EIPA, 5-(N-ethyl-N-isopropyl)-amiloride], the “decrease” value [1] is reported as “about 50%” and the “effect on norepinephrine release induced” value ([1]; angiotensin II 100 nM) is reported as “blocked”.
With `CNCCCN1c2ccccc2CCc2ccccc21` [DMI, desipramine] the “decrease” value [1] was “about 50%” and the “effect on norepinephrine release induced” value ([1]; angiotensin II 100 nM) was “blocked”.
With `CC(=O)OCOC(=O)CN(CC(=O)OCOC(C)=O)c1ccccc1OCCOc1ccccc1N(CC(=O)OCOC(C)=O)CC(=O)OCOC(C)=O` [BAPTA-AM] the “effect on angiotensin II-induced increase in Na+/H+ exchanger activity” value (Na+/H+ exchanger [5]; 10 μM prior to angiotensin II 10 nM) was “prevented”.
With `NC[C@H](O)c1ccc(O)c(O)c1` [norepinephrine] the “increase in Na+/H+ exchanger activity over control” value (Na+/H+ exchanger [6]) was “about 3 fold”.
For `CC(=O)OC[C@H]1O[C@@H]([S-])[C@H](OC(C)=O)[C@@H](OC(C)=O)[C@@H]1OC(C)=O.CCP(CC)CC.[Au+]` [auranofin], the “inhibition of human lung mast cell release (histamine)” value (“inhibition” below) (human lung mast cells) is given as “inhibited”.
With `CCCCCCCCCCCCCC(=O)O[C@@H]1[C@@H](C)[C@@]2(O)[C@@H](C=C(CO)C[C@]3(O)C(=O)C(C)=C[C@@H]23)[C@@H]2C(C)(C)[C@]12OC(C)=O` [PMA, phorbol 12-myristate 13-acetate] the “increase in the releasing effect of angiotensin II” value (SH-SY5Y-AT1A cells [7]; 8-min incubation with PMA) was 3 fold.
For `CCCc1c2oc(C(=O)O)cc(=O)c2cc2c(=O)cc(C(=O)O)n(CC)c12` [nedocromil sodium], the “inhibition” value (human lung mast cells) is listed as “poorly inhibit”.
In the case of `O=C(O)c1cc(=O)c2c(OCC(O)COc3cccc4oc(C(=O)O)cc(=O)c34)cccc2o1` [disodium cromoglycate], the “inhibition” value (human lung mast cells) is given as “poorly inhibit”.
In the case of `C[C@H](N[C@@H](CCc1ccccc1)C(=O)O)C(=O)N1CCC[C@H]1C(=O)O` [enalaprilat], the “effect on 48/80 potentiation of norepinephrine release” value ([4]; nerve endings incubated with BILA2157 10 nM, enalaprilat 30 nM or EXP 3174 10 nM) is reported as “abolished”.
For `CC(Cc1ccc(O)cc1)NCC(O)c1cc(O)cc(O)c1` (stereo not drawn) [fenoterol], the “inhibition” value (human lung mast cells) is given as “most potent global inhibitors”.
With “angiotensin II (DRVYIHPF; Angiotensin-2; UniProt P01019 25-32, looked up)” the “increase in norepinephrine release above basal level” value ([1]; angiotensin II 100 nM) was 27%, the “rate of Na+-dependent intracellular alkalinization” value (Na+/H+ exchanger [6]; control 0.04) was 0.19 pH units/min and the “increase in Na+/H+ exchanger activity over control” value (Na+/H+ exchanger [6]) was “about 6 fold”. For the same compound, the “intracellular calcium after angiotensin II” value (SH-SY5Y-AT1A cells [2]; angiotensin II 10 nM, from about 60 nM basal) was 220 nM, the “increase in Na+-dependent intracellular pH recovery rate” value (Na+/H+ exchanger [5]; angiotensin II 10 nM) was 2.5 fold and the “increase in MPP+ release above basal levels” value (SH-SY5Y-AT1A cells [7]; 10-min exposure) was 20%.
